In brackets after ≈: the same amount, converted by molar mass. Read-outs that look alike come from different tables or passages of the source. No end group written: not given here.
Legend:
A. baumannii RUH875 [1] = format: cell-based
Procedure: (§1) The bacterial strains used in this study included S. aureus JAR060131 [54] and the MDR ESKAPE pathogens Enterococcus faecium LUH15122, S. aureus LUH14616, Klebsiella pneumoniae LUH15104, A. baumannii RUH875 [55], Pseudomonas aeruginosa LUH15103, Enterobacter cloacae LUH15114, and the colistin-resistant Escherichia coli LUH15117. Before each experiment, bacteria from frozen stocks were cultured at 37 °C for 18–24 h on sheep blood agar plates (BioMérieux, Marcy-l’Étoile, France). All strains were then cultured from colonies either in tryptic soy broth (TSB; Oxoid, Basingstoke, UK) for A. baumannii, S. aureus, and E. faecium, or in brain heart infusion broth (BHI; Oxoid) for K. pneumoniae, P. aeruginosa, E. cloacae, and E. coli at 37 °C with shaking at 120 rpm for 18–24 h. Subsequently, bacteria were cultured to mid-logarithmic phase in the media described above at 37 °C with shaking at 120 rpm for 3 h. Bacteria were then washed twice with PBS and diluted to the required inoculum suspension concentration in Roswell Park Memorial Institute (RPMI)-1640 medium containing 20 mM HEPES and L-glutamine but without sodium bicarbonate (Sigma-Aldrich; hereafter referred to as RPMI), based on optical density at 620 nm. RPMI was selected because it supports bacterial growth without impairing AMP activity.
(§2) Bactericidal activity was assessed as described by de Breij et al.. Briefly, mid-logarithmic phase bacterial cultures were diluted to a final concentration of 1 × 10^7 colony-forming units (CFU)/mL in RPMI. Then, 10 µL was added to a final volume of 100 µL in RPMI (final concentration: 1 × 10^6 CFU/mL). Cultures were exposed to peptides either in RPMI or RPMI supplemented with 50% (v/v) human plasma (hereafter referred to as 50% plasma), obtained from four healthy volunteers after informed consent, frozen after collection, and pooled (Sanquin, Amsterdam, The Netherlands). Assays were performed in duplicate using round-bottom polypropylene microtiter plates (Costar, Arlington, VA, USA) and repeated three times. In the initial screening phase (Table 1, Table 2 and Table S1), peptide solutions of 1, 10, and 100 μM (final concentration) were tested against A. baumannii RUH875 and S. aureus JAR060131 in RPMI and in 50% plasma. After this selection process, two lead candidates, their RI variants, and reference peptides were tested with a final concentration range of 0.12 to 120 µM (two-fold dilutions) in RPMI and in 50% plasma (Table 3). The peptides were also tested against ESKAPE pathogens, with Synthetic Antimicrobial and Antibiofilm Peptide (SAAP)-148 as a reference peptide (Table 4).RPMI or 50% plasma served as no-treatment controls. After 2 and 18 h of incubation at 37 °C with shaking at 120 rpm in a humidified environment, the numbers of viable bacteria were quantified. Bactericidal activity was expressed as the lethal concentration 99.9% (LC99.9), defined as the lowest peptide concentration that killed ≥99.9% of bacteria within 2 h (LC99.9_2h) or 18 h (LC99.9_18h) compared to the initial inoculum.

S. aureus JAR060131 [2] = format: cell-based; settings: for LC99.9 S. aureus JAR060131 50% Plasma 2 h / LC99.9 S. aureus JAR060131 RPMI 2 h: JAR060131, 2 h
Procedure: as §1, §2

[3] = test system: BJ human skin fibroblast cells; assay: LDH leakage assay (membrane integrity); settings: lowest concentration causing >30% LDH leakage; BJ fibroblasts; 24 h; DMEM with 2% FBS; 0.05-60 µM
Procedure: (§3) BJ human skin fibroblast cells (ATCC CRL-2522; RRID: CVCL_3653; LGC Standards, Germany (September 2023)) were cultured in Dulbecco’s Modified Eagle Medium (DMEM; Gibco, Waltham, MA, USA) supplemented with 10% (v/v) foetal bovine serum (FBS; Sigma-Aldrich) and 1% (v/v) penicillin/streptomycin (pen/strep; Gibco). Cell suspensions (5 × 10^5 cells/mL) were seeded into 96-well plates (100 μL/well; Thermo Scientific, Waltham, MA, USA) and allowed to adhere for 24 h. Monolayers were then exposed to two-fold serial dilutions of GDST peptides, their RI variants, and reference peptides (final concentrations: 0.05 to 60 µM) in fresh DMEM with 2% (v/v) FBS for 24 h at 37 °C in a humidified atmosphere with 5% CO2.
(§4) Cell viability and membrane integrity were assessed using the water-soluble tetrazolium salt (WST-1; Roche, Basel, Switzerland) assay and the lactate dehydrogenase (LDH; Abcam, Cambridge, UK) assay, respectively, according to manufacturer instructions. Results were expressed as percentages of metabolic activity and LDH leakage relative to untreated control cells and the positive lysis control, respectively. The cytotoxic concentration was defined as the lowest peptide concentration causing <70% metabolic activity and >30% LDH leakage. All experiments were performed in triplicate.

[4] = test system: BJ human skin fibroblast cells; assay: WST-1 metabolic activity assay (cell viability); settings: lowest concentration causing <70% metabolic activity (WST-1); BJ fibroblasts; 24 h; DMEM with 2% FBS; 0.05-60 µM
Procedure: as §3, §4

[5] = test system: A. baumannii RUH875 biofilm; assay: Biofilm killing; format: cell-based, Acinetobacter baumannii; settings: for Concentration achieving significant biofilm killing of A. baumannii: at any treatment time (2 h, 24 h), tested up to 120 µM; for A. baumannii biofilm killing, 24 h treatment (in words): up to 120 µM
Procedure: (§5) Mid-logarithmic phase cultures of A. baumannii RUH875 or S. aureus JAR060131 were diluted to 1 × 10^8 CFU/mL in RPMI supplemented with 1% glucose. A total of 100 μL of each suspension was added to flat-bottom polystyrene 96-well microplates (Costar) and incubated under static conditions at 37 °C in a humidified atmosphere for 24 h to allow biofilm formation. After 24 h, planktonic bacteria were removed, and wells were carefully washed with 100 μL PBS [60]. […] Control samples were exposed to 100 μL of PBS only.
(§6) Biofilms were treated at 37 °C for either 2 or 24 h. […] Plates were sealed and sonicated for 5 min (Elmasonic, Singen, Germany; 45 kHz) at room temperature to dislodge adherent bacteria. […] Quantitative cultures were performed by plating serial 10-fold dilutions on sheep blood agar, and results were expressed as log10 CFU per well. The lower limit of detection was three CFU. Each condition was tested in six replicates.

[6] = test system: S. aureus JAR060131 biofilm; assay: Biofilm killing; format: cell-based, Staphylococcus aureus; settings: for S. aureus biofilm killing, 24 h treatment (in words): up to 120 µM; for S. aureus biofilm killing, 24 h treatment (in words) / Concentration giving ≥3-log reduction of S. aureus biofilm CFU within 24 h: 24 h treatment; for Concentration giving ≥3-log reduction of S. aureus biofilm CFU within 24 h: >3 log for BP2 and pexiganan
Procedure: as §5, §6

A. baumannii RUH875 [7] = assay: microbe, parasite or virus in culture; format: cell-based, Acinetobacter baumannii; settings: for MIC: Acinetobacter baumannii
Procedure: (§7) The potential for resistance development to GDST-038, GDST-045, and their RI variants was assessed as described by Habets and Brockhurst. Resistance development to the antibiotics rifampicin and ciprofloxacin (both from Sigma-Aldrich) was evaluated for comparison. Briefly, 10 μL of a mid-logarithmic phase culture of A. baumannii RUH875 or S. aureus JAR060131 was added to 90 μL of peptide (final concentrations: 0.23 to 120 μM) or antibiotic (final concentrations: 0.03 to 256 μg/mL) solution in RPMI, in 96-well polypropylene round-bottom plates (Costar). All incubations were performed in quadruplicate. Plates were sealed with breathable seals (Greiner) and incubated at 37 °C with shaking at 120 rpm in a humidified environment for 18 h (S. aureus) or 48 h (A. baumannii).
(§8) The minimum inhibitory concentration (MIC), defined as the lowest concentration that inhibited visible bacterial growth, was then determined. Subsequently, 2 μL from the 0.5-fold MIC condition was transferred to fresh medium containing a concentration series ranging from 0.5- to 8-fold the new MIC. This procedure was repeated over 22 consecutive passages to monitor resistance development.

S. aureus JAR060131 [8] = assay: microbe, parasite or virus in culture; format: cell-based, Staphylococcus aureus; settings: Staphylococcus aureus
Procedure: as §7, §8

[9] = RPMI, 18 h, median of three independent experiments

Compound	Cytotoxicity LDH Leakage >30% [3] [µM]	Cytotoxicity Metabolic Activity <70% [4] [µM]	Concentration achieving significant biofilm killing of A. baumannii [5] [µM]	S. aureus biofilm killing, 24 h treatment (in words) [6]	LC99.9 A. baumannii RUH875 50% Plasma 2 h (A. baumannii RUH875 [1]; RUH875, 2 h) [µM]	LC99.9 A. baumannii RUH875 RPMI 18 h (A. baumannii RUH875 [1]; RUH875, 18 h) [µM]	LC99.9 S. aureus JAR060131 50% Plasma 2 h (S. aureus JAR060131 [2]) [µM]	LC99.9 S. aureus JAR060131 RPMI 2 h (S. aureus JAR060131 [2]) [µM]	LC99.9 S. aureus JAR060131 RPMI 18 h (S. aureus JAR060131 [2]; JAR060131, 18 h) [µM]	A. baumannii biofilm killing, 24 h treatment (in words) [5]	Concentration giving ≥3-log reduction of S. aureus biofilm CFU within 24 h [6] [µM]	other results
CC[C@H](C)[C@H](NC(=O)[C@H](CCCCN)NC(=O)[C@H](CCC(=O)O)NC(=O)[C@H](CCCCN)NC(=O)[C@H](CO)NC(=O)[C@H](CCCCN)NC(=O)[C@H](CCCNC(=N)N)NC(=O)[C@H](Cc1ccccc1)NC(=O)[C@H](Cc1ccccc1)NC(=O)[C@H](CC(=O)O)NC(=O)CNC(=O)[C@H](CC(C)C)NC(=O)[C@@H](N)CC(C)C)C(=O)NCC(=O)N[C@@H](CCCCN)C(=O)N[C@@H](CCC(=O)O)C(=O)N[C@@H](Cc1ccccc1)C(=O)N[C@@H](CCCCN)C(=O)N[C@@H](CCCNC(=N)N)C(=O)N[C@H](C(=O)N[C@H](C(=O)N[C@@H](CCC(N)=O)C(=O)N[C@@H](CCCNC(=N)N)C(=O)N[C@H](C(=O)N[C@@H](CCCCN)C(=O)N[C@@H](CC(=O)O)C(=O)N[C@@H](Cc1ccccc1)C(=O)N[C@@H](CC(C)C)C(=O)N[C@@H](CCCNC(=N)N)C(=O)N[C@@H](CC(N)=O)C(=O)N[C@@H](CC(C)C)C(=O)N[C@H](C(=O)N1CCC[C@H]1C(=O)N[C@@H](CCCNC(=N)N)C(=O)N[C@H](C(=O)N[C@@H](CCC(=O)O)C(=O)N[C@@H](CO)C(=O)O)[C@@H](C)O)C(C)C)[C@@H](C)CC)C(C)C)[C@@H](C)CC [LL-37, reference compound]	7.5	15	> 120	did not exhibit significant biofilm-killing effects	–	–	–	–	–	–	–	LC99.9 A. baumannii RUH875 50% Plasma 2 h (A. baumannii RUH875 [1]; 50% plasma, 2 h, median of three independent experiments): 60 µM; LC99.9 A. baumannii RUH875 50% Plasma 18 h (A. baumannii RUH875 [1]; 50% plasma, 18 h, median of three independent experiments): 60 µM; LC99.9 A. baumannii RUH875 RPMI 2 h (A. baumannii RUH875 [1]; RPMI, 2 h, two-fold dilutions 0.12-120 µM, median of three independent experiments): 1.88 µM; LC99.9 A. baumannii RUH875 RPMI 18 h (A. baumannii RUH875 [1]; [9]): 1.88 µM; LC99.9 S. aureus JAR060131 RPMI 18 h (S. aureus JAR060131 [2]; [9]): > 120 µM
O=C(O)c1cn(C2CC2)c2cc(N3CCNCC3)c(F)cc2c1=O [ciprofloxacin, reference compound]	–	–	–	–	–	–	–	–	–	–	–	MIC (A. baumannii RUH875 [7]; RUH875, read-out: MIC A. baumannii after 22 passages): 64 µg/mL (≈ 193 µM); MIC (A. baumannii RUH875 [7]; RUH875, read-out: MIC A. baumannii before passaging): 0.5 µg/mL (≈ 1.51 µM); MIC increase in A. baumannii after 22 passages (A. baumannii RUH875 [7]; relative to first passage): 128 fold
CO[C@H]1/C=C/O[C@@]2(C)Oc3c(C)c(O)c4c(O)c(c(/C=N/N5CCN(C)CC5)c(O)c4c3C2=O)NC(=O)/C(C)=C\C=C\[C@H](C)[C@H](O)[C@@H](C)[C@@H](O)[C@@H](C)[C@H](OC(C)=O)[C@@H]1C [rifampicin, reference compound]	–	–	–	–	–	–	–	–	–	–	–	MIC (S. aureus JAR060131 [8]; JAR060131, read-out: MIC S. aureus after 22 passages): 4100 µg/mL (≈ 4980 µM); MIC (S. aureus JAR060131 [8]; JAR060131, read-out: MIC S. aureus before passaging): 0.25 µg/mL (≈ 0.304 µM)
GIGKFLKKAKKFGKAFVKILKK-NH2 (C-terminus assumed) [Pexiganan, reference compound]	–	–	–	–	0.23	0.47	7.50	0.47	0.23	not sustained after 24 h	≥ 30	Concentration killing ≥3 log CFU of A. baumannii biofilm within 2 h ([5]; 24 h biofilm, 2 h treatment in PBS, 1.88-120 μM, vs untreated biofilm): ≥ 30 µM
GKWKLFKKAFKKFLKILAC [BP2, reference compound]	1.88	0.47	–	–	–	–	–	–	–	complete eradication	≥ 30	Concentration giving complete eradication of S. aureus biofilm within 24 h ([6]; 24 h biofilm, 24 h treatment in PBS): ≥ 60 µM
LRAMCIKWWSGKHPK [TC84, reference compound]	–	–	> 120	did not exhibit significant biofilm-killing effects	3.75	3.75	7.5	7.5	7.5	–	–	–

— publication PMC12649225, “Machine Learning-Identified Potent Antimicrobial Peptides Against Multidrug-Resistant Bacteria and Skin Infections” (Antibiotics, 2025)
